These results are taken from paper PMC4414309, “Target Modulation by a Kinase Inhibitor Engineered to Induce a Tandem Blockade of the Epidermal Growth Factor Receptor (EGFR) and c-Src: The Concept of Type III Combi-Targeting” (PLoS ONE, 2015).

The target of series [1] is T1, EGFR (Homo sapiens, UniProt P00533).
T1 construct: purchased Enzo Life Sciences Inc, NY, USA; Signal Chem, Richmond, Canada
The arrangement: method as in PMID 22943437. The following applies: read-out: IC50 EGFR kinase inhibition (published); cited from earlier work.

Series [2] has as its target T1, EGFR. In words: Published EGFR kinase inhibition of AL621. It is filed as biochemical. As to conditions: published IC50 of AL621 compared with AL776.
Series [3] is described as follows: LC-MS analysis of AL776 hydrolysis in plasma in vivo. As to conditions: AL776 80 mg/kg i.v., after 30 min. The arrangement: species or system CD-1 mice. As for the experimental part:
CD-1 mice were divided into groups of three and treated with 80 mg/kg of AL776, injected intraperitoneally (i.p) or intravenously (i.v). Mice were sacrificed and their plasma was collected for further analysis after 0, 5, 15 and 30 min after drug treatment. Plasma samples were extracted using twice the volume of methanol and lysed at 13,000 rpm for 30 min at 4°C. The resulting supernatant from each sample was collected, filtered and evaporated to dryness before reconstituting in 100 μL of methanol. LC-MS analyses were performed on a Synapt G2-S instrument coupled with an Acquity UPLC Class I system both from Waters. Elution rate was set at 500 μL/min using an Eclipse XDB C8, 3.5 um, 2.1 x 100 mm chromatographic column from Agilent Technologies. The experiments were performed with the following eluents: 0.1% aqueous formic acid (eluent A) and methanol (eluent B). The initial mobile phase was 30% B, which was maintained for 0.2 min at the beginning of the run. The following gradient elution was subsequently applied: 30 to 50% B from 0.2 to 4 min; 50 to 80% B from 4 to 10 min; held at 80% B from 10 to 11 min. Thereafter, eluent B was decreased to 30% in 0.2 min and held constant for up to 15 min to allow the column to equilibrate. Each sample was diluted with methanol in order to avoid detector saturation and […] aliquots of the resulting solutions were injected. Analyses were performed with the electrospray interface in positive ion mode and mass spectra acquired from m/z 100 to 1200. For accurate mass determination, Leucine Enkephalin was used as lock mass. The MassLynx software was used for instrument control, data acquisition and data processing.

For series [4], the system named is 4T1 cells. Description: Growth inhibition, SRB assay, 4T1. The following applies: Mus musculus, 4T1, 120 h, read-out: IC50 growth inhibition 4T1. Background: In SRB staining, fixed cells bind dye roughly in proportion to their protein.
Procedure: (§3) Growth inhibition was measured in cells using the sulforhodamine B (SRB) assay [48]. […] The plates were subsequently rinsed with 1% acetic acid, and allowed to dry overnight. […] The results were analyzed using GraphPad Prism 6.0 (GraphPadSoftware, Inc., San Diego, CA) and the sigmoidal dose response curve was used to determine IC50 values. Each experiment was carried out at least four times, in triplicate.
Series [5] has as its system MDA-MB-231 cells. Description: Growth inhibition, SRB assay, MDA-MB-231. The following applies: Homo sapiens, MDA-MB-231, 120 h, read-out: IC50 growth inhibition MDA-MB-231.
Procedure: as §3
A further series concerns NIH3T3 wild type cells. In words: Growth inhibition, sulforhodamine B (SRB) assay, NIH3T3 wild type. As to conditions: Mus musculus, NIH3T3, 120 h, read-out: IC50 growth inhibition NIH3T3 – Wt.
For series [6], the system named is 4T1 cells. In words: Boyden chamber invasion assay, 4T1. In kind it is cell-based, mouse. As to conditions: for Effect on invasion: 4T1, concentration as low as 0.1 μM, 24h. The protocol: (§1) The invasive property of MDA-MB-231 and 4T1 cells was determined using the Boyden-chamber invasion assay. Cells suspended in serum-free media were plated (120–150,000 cells/well) onto polycarbonate transwell inserts (8 μm pore size, BD Biosciences) coated with matrigel (6%) (BD Biosciences), separating the top and bottom chambers (50 μl/filter). […] The invasive property of cells was observed 24h after treatment by fixing cells in formalin and staining with 0.1% crystal violet (Sigma-Aldrich Canada Ltd). Cells attached on the upper surface of the insert (top chamber) were removed by gently scraping away with a cotton swab, whereas those that invaded onto the lower side of the insert were observed using a microscope (Leica DM IL inverted microscope, 10X). Images of five non-overlapping fields of invading cells were captured using the Leica DFC300FX camera and quantification was done using the Scion Image Analysis (3.53.0.0) software and ImageJ 1.46r software. The results were expressed in terms of percentage of invading cells relative to control and the bar graphs represent the average of three independent experiments.

Series [7] concerns MDA-MB-231 cells. Description: Boyden chamber invasion assay, MDA-MB-231. It is filed as cell-based, human. As to conditions: for Effect on invasion: MDA-MB-231, concentration as low as 0.1 μM, 24h. The protocol: as §1
In the next series the target is T2, c-Src (Homo sapiens, UniProt P12931).
T2 construct: purchased Enzo Life Sciences Inc, NY, USA; Signal Chem, Richmond, Canada
In words: In vitro kinase assay, c-Src. In kind it is biochemical. The following applies: ATP 50 μM, read-out: IC50 c-Src kinase inhibition. The protocol: (§2) The EGFR and c-Src kinase assays were performed in 96-well plates (NuncMaxisorp) coated with PGT (poly L-glutamic acid L-tyrosine, 4:1, Sigma Aldrich, MO, USA) and incubated at 37°C for 48h prior to using. PGT served as the substrate to be phosphorylated by EGFR (Enzo Life Sciences Inc, NY, USA, Signal Chem, Richmond, Canada) and c-Src (Enzo Life Sciences Inc, NY, USA, Signal Chem, Richmond, Canada) in the presence of ATP (50 μM). […] To each well, 15 ng of EGFR (20 μg/ml) or 6 ng of c-Src (0.1 μg/μl) were added. The phosphorylated substrate was detected using an HRP-conjugated anti-phosphotyrosine antibody (Santa Cruz Biotechnology, CA). The signal was developed by the addition of 3, 3’, 5, 5’-tetramethylbenzidine peroxidase substrate (Kierkegaard and Perry Laboratories, Gaithersburg, MD) and the colorimetric reaction was monitored at 450 nm using a microplate reader ELx808 (BioTek Instruments). The IC50 values were calculated using GraphPad Prism 6.0 (GraphPadSoftware, Inc., San Diego, CA). Each experiment was carried out at least three times, in duplicate.

In series [8] the target is T1, EGFR. In words: In vitro kinase assay, EGFR. In kind it is biochemical. As to conditions: ATP 50 μM, average of three independent experiments in duplicate, read-out: IC50 EGFR kinase inhibition. As for the experimental part:
as §2

The mark [9] stands for this setting: average of three independent experiments in duplicate.

Read-outs that look alike come from different tables or passages of the source. Where only a bound is given, the exact number is not on record here.

T2 sequence (P12931 whole entry): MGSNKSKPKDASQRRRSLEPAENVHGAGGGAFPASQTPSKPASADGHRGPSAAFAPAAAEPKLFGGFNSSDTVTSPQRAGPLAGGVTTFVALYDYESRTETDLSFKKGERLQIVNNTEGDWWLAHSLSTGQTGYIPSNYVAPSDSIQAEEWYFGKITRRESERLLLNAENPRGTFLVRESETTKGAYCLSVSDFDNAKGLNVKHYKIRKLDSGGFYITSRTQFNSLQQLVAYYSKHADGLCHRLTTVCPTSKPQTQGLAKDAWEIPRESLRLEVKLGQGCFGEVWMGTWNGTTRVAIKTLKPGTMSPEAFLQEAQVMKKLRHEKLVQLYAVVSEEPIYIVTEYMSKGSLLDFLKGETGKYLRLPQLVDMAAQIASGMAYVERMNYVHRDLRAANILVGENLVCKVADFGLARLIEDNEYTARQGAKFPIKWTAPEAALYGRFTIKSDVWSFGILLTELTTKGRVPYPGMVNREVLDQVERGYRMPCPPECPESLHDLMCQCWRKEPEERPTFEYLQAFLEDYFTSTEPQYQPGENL
T1 sequence (P00533 25-1210): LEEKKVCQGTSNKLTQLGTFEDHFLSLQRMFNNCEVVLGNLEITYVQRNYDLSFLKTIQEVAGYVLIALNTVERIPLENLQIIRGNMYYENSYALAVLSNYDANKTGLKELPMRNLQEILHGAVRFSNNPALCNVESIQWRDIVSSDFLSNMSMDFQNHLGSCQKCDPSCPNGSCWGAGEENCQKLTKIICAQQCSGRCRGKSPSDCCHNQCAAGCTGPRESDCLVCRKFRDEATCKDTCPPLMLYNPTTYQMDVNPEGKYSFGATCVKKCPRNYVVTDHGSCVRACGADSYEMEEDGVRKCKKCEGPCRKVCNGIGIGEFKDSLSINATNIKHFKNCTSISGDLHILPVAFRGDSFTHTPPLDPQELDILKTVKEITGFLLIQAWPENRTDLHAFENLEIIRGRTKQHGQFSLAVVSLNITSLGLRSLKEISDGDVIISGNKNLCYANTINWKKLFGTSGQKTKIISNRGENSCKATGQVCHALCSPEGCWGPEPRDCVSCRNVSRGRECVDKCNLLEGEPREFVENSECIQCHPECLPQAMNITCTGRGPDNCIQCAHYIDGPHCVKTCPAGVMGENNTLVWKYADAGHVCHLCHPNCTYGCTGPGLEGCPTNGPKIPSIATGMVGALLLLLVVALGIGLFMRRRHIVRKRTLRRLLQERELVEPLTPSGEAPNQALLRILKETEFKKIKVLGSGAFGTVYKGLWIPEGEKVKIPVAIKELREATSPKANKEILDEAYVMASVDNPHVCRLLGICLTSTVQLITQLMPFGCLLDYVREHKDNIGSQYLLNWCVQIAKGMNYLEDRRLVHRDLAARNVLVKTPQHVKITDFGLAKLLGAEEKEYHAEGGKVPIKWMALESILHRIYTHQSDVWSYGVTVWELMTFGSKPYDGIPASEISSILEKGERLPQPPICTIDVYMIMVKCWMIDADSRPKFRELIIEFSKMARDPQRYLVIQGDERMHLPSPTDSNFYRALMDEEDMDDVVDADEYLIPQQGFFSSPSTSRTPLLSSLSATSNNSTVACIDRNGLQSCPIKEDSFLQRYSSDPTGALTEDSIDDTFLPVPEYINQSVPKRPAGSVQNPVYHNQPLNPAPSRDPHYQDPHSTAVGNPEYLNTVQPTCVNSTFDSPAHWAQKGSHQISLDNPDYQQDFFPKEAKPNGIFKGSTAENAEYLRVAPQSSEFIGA
Procedure for NIH3T3 wild type cells: as §3

`CN(CCO)Cc1ccc(C(=O)Nc2ccc3ncnc(Nc4cccc(Cl)c4)c3c2)cc1` [AL621]: at EGFR [1], the half-inhibitory concentration (IC50) (commonly the concentration that inhibits the measured activity by half) is 3 nM. In addition, at EGFR [2], the “EGFR kinase potency relative to intact AL776” value is recorded as “ca. 40 fold”. Further, the “Plasma level as metabolite of AL776” value in [3] is on record as “abundant levels”.

Take `Cc1nc(Nc2ncc(C(=O)Nc3c(C)cccc3Cl)s2)cc(N2CCN(CCO)CC2)n1` [Dasatinib, dasatinib, reference compound]: the IC50 in the series with 4T1 cells [4] turned out to be 50 ± 20 nM; in the series with MDA-MB-231 cells [5], 20 ± 10 nM; in the series with NIH3T3 wild type cells, 16400 ± 5200 nM. Also, the Effect on invasion result in the series on 4T1 cells [6] and with MDA-MB-231 cells [7] was “strongly inhibited invasion” throughout. The “Plasma level as metabolite of AL776” value in series [3] is recorded as “abundant levels”.

`COc1cc2ncnc(Nc3ccc(F)c(Cl)c3)c2cc1OCCCN1CCOCC1` [Gefitinib, gefitinib]: the “Anti-invasive effect weaker than dasatinib” value in the series on 4T1 cells [6] (4T1) and in the series with MDA-MB-231 cells [7] (MDA-MB-231) was 2-3 fold each time. In addition, the Effect on invasion entry with 4T1 cells [6] and in the series with MDA-MB-231 cells [7] was “mostly unable to block invasion” each time.

For `Cc1nc(Nc2ncc(C(=O)Nc3c(C)cccc3Cl)s2)cc(N2CCN(CCOC(=O)c3cnc(C(=O)Nc4ccc5ncnc(Nc6cccc(Cl)c6)c5c4)cn3)CC2)n1` [III], the IC50 at c-Src is less than 0.1 nM; at EGFR [8], 600 ± 200 nM.

With `Cc1nc(Nc2ncc(C(=O)Nc3c(C)cccc3Cl)s2)cc(N2CCN(CCOC(=O)CCC(=O)Nc3ccc4ncnc(Nc5cccc(Cl)c5)c4c3)CC2)n1` [IV], the IC50 at c-Src (setting [9]) came to 8 ± 3 nM; at EGFR [8], 400 ± 100 nM.

As for `Cc1nc(Nc2ncc(C(=O)Nc3c(C)cccc3Cl)s2)cc(N2CCN(CCOC(=O)OCCN3CCN(CCNc4ccc5ncnc(Nc6cccc(Br)c6)c5c4)CC3)CC2)n1` [VI], the 50% inhibitory concentration (IC50) at c-Src (setting [9]) stood at 40 ± 10 nM; at EGFR [8] it was 1100 ± 300 nM.
